Measurements reported in US20220053773A1 (priority 2018, published 2022).
≈ marks a conversion by molar mass, not a printed value. Read-outs that look alike come from different tables or passages of the source. Bridge positions count the residues as written; N and C are the ends. Ends that are not written are not given here. Peptide text beside a SMILES is read from it.

Legend:
E. coli ATCC 25922 = conditions: for MIC-E. coli (μM) 25922: Table 6; for MIC-E.Coli (μM) 25622: Table 9 lower part, c1
[1] = tested on: X. fastidiosa (Xf) in infected grapevines; conditions: in vivo
[2] = tested on: X. fastidiosa (PD strain)
Salmonella = conditions: for MIC-human (μm) Salmonella: Table 9 lower part, c4
Pseudomonas WT 27853 = conditions: for MIC-human (μm) Pseudomonas WT 27853: Table 9 lower part, c5
[3] = tested on: Pseudomonas Resistant BAA-2114
[4] = tested on: Xanthomonas Perforans BAA983
[5] = tested on: Xanthomonas Euvesicatoria 11633
[6] = tested on: human and plant gram-negative bacteria
[7] = tested on: human cells (red blood cells, immune cells HL-60, lung/skin epithelial cells)
[8] = tested on: N. benthamiana mesophyll protoplasts
E.Coli 14028 = conditions: Table 9 lower part, c2
[9] = tested on: P11-resistant E. coli ATCC 25922
[10] = tested on: P11-resistant E. coli BL21
E. coli K12 = conditions: Table 3, K12-WT
[11] = tested on: P11-resistant E. coli K12; conditions: Table 3, K12-R
E. coli BL21 = conditions: Table 3, BL21-WT

ELLRRLLASLRRHDLLRGPGRELLRLLASLRRHDLLR [Peptide 38P1]
MIC-E. coli (μM) 25922 (E. coli ATCC 25922): 2.5 to 5 µM

CC[C@H](C)[C@H](NC(=O)[C@H](CCCNC(=N)N)NC(=O)[C@H](CC(C)C)NC(=O)[C@@H](NC(=O)[C@H](CCCNC(=N)N)NC(=O)[C@H](CCCNC(=N)N)NC(=O)[C@@H](NC(=O)[C@H](CC(C)C)NC(=O)[C@H](CCCNC(=N)N)NC(=O)[C@@H](N)CCCNC(=N)N)[C@@H](C)CC)[C@@H](C)CC)C(=O)N[C@@H](CC(C)C)C(=O)NC [Peptide 11P5, RRLIRRILRIL-(NCH3)] (H-RRLIRRILRIL-NHMe; N-terminus and C-terminus assumed)
MIC-E. coli (μM) 25922 (E. coli ATCC 25922): 6.7 ± 0.9 µM (≈ 9.99 µg/mL)

KLIKLIKKILKKGPGRKKLIKKILKILK [Peptide 28P4]
% Xf clearance from bark by qPCR [1]: completely clear | % Xf clearance from green leaves by qPCR [1]: completely clear | MIC-E. coli (μM) 25922 (E. coli ATCC 25922): 2.1 µM | MIC-E.Coli (μM) 25622 (E. coli ATCC 25922): 2.1 µM | MIC (μM) X. fastidiosa (PD strain) [2]: 3.0 ± 0.1 µM | MIC-human (μm) Salmonella (Salmonella): 1.3 µM | MIC-human (μm) Pseudomonas WT 27853 (Pseudomonas WT 27853): 1.3 µM | MIC-human (μm) Pseudomonas Resistant BAA-2114 [3]: 2.5 µM | MIC-plant (μm) Xanthomonas Perforans BAA983 [4]: 2.5 µM | MIC-plant (μm) Xanthomonas Euvesicatoria 11633 [5]: 2.5 µM

LIRLLRRILRRGPGRRRLIRRLLRIL [Peptide 26P3]
MIC-plant bacteria (μM) Xylela fastidiosa (grape) [2]: 4.8 µM

KRIVQRIKDFLRGPGRKRIVQRIKDFLR [Peptide 28P2]
MIC-E. coli (μM) 25922 (E. coli ATCC 25922): 6 (2) μM | MIC-E.Coli (μM) 25622 (E. coli ATCC 25922): 6(2) μM | MIC against one E. coli strain [6]: 6 µM | MICs for human and plant bacteria [6]: 1.3 to 3 µM | concentration toxic to human cells [7]: above 20 μM

LIRLIRRILRRGPGRRRLIRRILRIL [Peptide 26P2]
MIC-E. coli (μM) 25922 (E. coli ATCC 25922): 1.3 to 2.5 µM

CC[C@H](C)[C@H](NC(=O)[C@H](CCCCN)NC(=O)[C@H](CC(C)C)NC(=O)[C@@H]1CSSC[C@H](NC(=O)[C@H](CC(C)C)NC(=O)[C@H](CCCCN)NC(=O)[C@@H](NC(=O)[C@@H](N)CC(C)C)[C@@H](C)CC)C(=O)N[C@@H](CCCCN)C(=O)N[C@@H](CCCCN)C(=O)N[C@@H]([C@@H](C)CC)C(=O)N[C@@H](CC(C)C)C(=O)N[C@@H](CCCCN)C(=O)N[C@@H](CCCCN)C(=O)NCC(=O)N2CCC[C@H]2C(=O)NCC(=O)N[C@@H](CCCNC(=N)N)C(=O)N[C@@H](CCCCN)C(=O)N[C@@H](CCCCN)C(=O)N[C@@H](CC(C)C)C(=O)N[C@@H]([C@@H](C)CC)C(=O)N[C@@H](CCCCN)C(=O)N[C@@H](CCCCN)C(=O)N1)C(=O)N[C@@H](CC(C)C)C(=O)O [CYS26P] (H-LIKLCKKILKKGPGRKKLIKKCLKIL-OH; disulfide 5-22)
MIC-E. coli (μM) 25922 (E. coli ATCC 25922): 4.3 ± 0.4 µM (≈ 12.9 µg/mL) | MIC (μM) X. fastidiosa (PD strain) [2]: >20 µM | MIC-human bacteria (μM) Salmonella (Salmonella; Table 9 upper part, c5): >20 µM | MIC-human bacteria (μM) Pseudomonas WT (Pseudomonas WT 27853; Table 9 upper part, c6): >20 µM | toxicity to human erythrocytes (human erythrocytes): did not demonstrate toxicity | toxicity to HL60 cells (HL60 cells): did not demonstrate toxicity | phytotoxicity, viability of N. benthamiana mesophyll protoplasts [8]: low phytotoxcicity

KEIVRRIKEFLRGPGRKEIVRRIKEFLR [Peptide 28P7]
MIC-E. coli (μM) 25922 (E. coli ATCC 25922): 4.3 µM | MIC-E.Coli (μM) 25622 (E. coli ATCC 25922): 4.3 µM | MIC-plant (μm) Xylela fastidiosa (grape) [2]: 2.5-5(2) μM | MIC-E.Coli (μM) 14028 (E.Coli 14028): 20 µM | MIC-human (μm) Pseudomonas WT 27853 (Pseudomonas WT 27853): 5 to 10 µM

HPLIKLIKKILKKGPGRKKLIKKILKILGH [Peptide 30P1]
MIC-E. coli (μM) 25922 (E. coli ATCC 25922): 0.9 to 1.25 µM

KKLIKKILKILGPGRKKLIKEILKILGPGRKKLIKKILKIL [Peptide 41P1]
MIC-E. coli (μM) 25922 (E. coli ATCC 25922): 4.50 ± 0.25 µM

CC[C@H](C)[C@H](NC(=O)[C@H](CCCCN)NC(=O)[C@H](CC(C)C)NC(=O)[C@@H](NC(=O)[C@H](CCCCN)NC(=O)[C@H](CCCCN)NC(=O)[C@@H](NC(=O)[C@H](CC(C)C)NC(=O)[C@H](CCCCN)NC(=O)[C@@H](N)CCCCN)[C@@H](C)CC)[C@@H](C)CC)C(=O)N[C@@H](CC(C)C)C(=O)NC [Peptide 11P3, KKLIKKILKIL-(NHCH3)] (H-KKLIKKILKIL-NHMe)
MIC-E. coli (μM) 25922 (E. coli ATCC 25922): 3.7 ± 0.5 µM (≈ 5 µg/mL)

KKLIKKILKIL [Peptide P11, KKLIKKILKIL]
MIC [9]: 192 ± 8.3 µM | MIC values ATCC [9]: 200 µM | MIC [10]: 194 ± 12.5 µM | MIC values BL21 ([10]; BL21): 194 µM | MIC (μM) X. fastidiosa (PD strain) [2]: 10 to 20 µM

EALRSRLEKRIYILYRDTPVVKSSSRQREELLRISLRELE [Peptide 40P1]
MIC-E. coli (μM) 25922 (E. coli ATCC 25922): >20 µM

RLLEKRLRRELERELRKQGPGRRLLEKRLRRELERELRKQ [Peptide 40P2]
MIC-E. coli (μM) 25922 (E. coli ATCC 25922): >20 µM

KEIVRRIEKFLRGPGRKRIVERIEKFLR [Peptide 28P8]
MIC-E. coli (μM) 25922 (E. coli ATCC 25922): 0.8 ± 0.1 µM | MIC-plant (μm) Xylela fastidiosa (grape) [2]: 1.25-2.5(2) μM | MIC-E.Coli (μM) 14028 (E.Coli 14028): 5 to 10 µM | MIC-human (μm) Pseudomonas WT 27853 (Pseudomonas WT 27853): 5 to 10 µM

KRLIQRKRLIQRGPGRKRLIQRKRLIQR [Peptide 28P3]
MIC-E. coli (μM) 25922 (E. coli ATCC 25922): >40 µM | MIC-E.Coli (μM) 25622 (E. coli ATCC 25922): >40 µM | MIC-human (μm) Salmonella (Salmonella): >20 µM | MIC-human (μm) Pseudomonas WT 27853 (Pseudomonas WT 27853): >20 µM | MIC-human (μm) Pseudomonas Resistant BAA-2114 [3]: >20 µM | MIC-plant (μm) Xanthomonas Perforans BAA983 [4]: 20 µM | MIC-plant (μm) Xanthomonas Euvesicatoria 11633 [5]: 20 µM

KLIRLIREILRRGPGRRRLIREILRILK [Peptide 28P6]
MIC-E. coli (μM) 25922 (E. coli ATCC 25922): 4.8 µM | MIC-E.Coli (μM) 25622 (E. coli ATCC 25922): 4.8 µM | MIC-plant (μm) Xylela fastidiosa (grape) [2]: 2.5-5(2) μM | MIC-E.Coli (μM) 14028 (E.Coli 14028): 20 µM | MIC-human (μm) Pseudomonas WT 27853 (Pseudomonas WT 27853): 5 to 10 µM

RKQLRELIERLLERIRKLGPGRREQLERLIERLERLIEKR [Peptide 40P3]
MIC-E. coli (μM) 25922 (E. coli ATCC 25922): >20 µM

LIRLIRRILRRGPGRRRLIRRILRIL [Peptide 26P-1]
MIC values ATCC [9]: 10 µM | MIC values BL21 ([10]; BL21): 4 µM | MIC (μM) X. fastidiosa (PD strain) [2]: 4.75 µM

CC[C@H](C)[C@@H]1NC(=O)[C@H](CCCCN)NC(=O)[C@H](CC(C)C)NC(=O)[C@H]([C@@H](C)CC)NC(=O)[C@H](CCCCN)NC(=O)[C@H](CCCCN)NC(=O)[C@H]([C@@H](C)CC)NC(=O)[C@H](CC(C)C)NC(=O)[C@H](CCCCN)NC(=O)[C@H](CCCCN)NC(=O)[C@H](CCCNC(=N)N)NC(=O)CNC(=O)[C@@H]2CCCN2C(=O)CNC(=O)[C@H](CCCCN)NC(=O)[C@H](CCCCN)NC(=O)[C@H](CC(C)C)NC(=O)[C@H]([C@@H](C)CC)NC(=O)[C@H](CCCCN)NC(=O)[C@H](CCCCN)NC(=O)[C@H]([C@@H](C)CC)NC(=O)[C@H](CC(C)C)NC(=O)[C@H](CCCCN)NC(=O)[C@H]([C@@H](C)CC)NC(=O)[C@H](CC(C)C)NC(=O)[C@H](CCCNC(=N)N)NC(=O)CNC(=O)[C@@H]2CCCN2C(=O)CNC(=O)[C@H](CC(C)C)NC1=O [CYCLIC30P] (cyclo(GPGRKKLIKKILKILGPGRLIKLIKKILKK))
MIC-E. coli (μM) 25922 (E. coli ATCC 25922): 12 (2) μM | MIC-E.Coli (μM) 25622 (E. coli ATCC 25922): 12(2) μM

LIKLIKKILKKGPGRKKLIKKILKIL [Peptide P26]
MIC (E. coli ATCC 25922; Table 3, ATCC-WT): 1.65 ± 0.3 µM | MIC-E. coli (μM) 25922 (E. coli ATCC 25922): 1.7 ± 0.2 µM | MIC [9]: 9.5 ± 0.7 µM | MIC (E. coli K12): 1.65 ± 0.3 µM | MIC [11]: 4.0 ± 0.6 µM | MIC (E. coli BL21): 1.95 ± 0.3 µM | MIC ([10]; BL21): 4.4 ± 0.3 µM | MIC (μM) X. fastidiosa (PD strain) [2]: 4.75 ± 0.25 µM | MIC-plant bacteria (μM) Xylela fastidiosa (grape) [2]: >20 µM | toxicity to human erythrocytes (human erythrocytes): did not demonstrate toxicity | toxicity to HL60 cells (HL60 cells): did not demonstrate toxicity | phytotoxicity, viability of N. benthamiana mesophyll protoplasts [8]: low phytotoxcicity
